Assay results: patent publication US12343428B2, “Compositions and methods for cancer treatment” (University of Virginia Patent Foundation, priority 2017, dated 2025)

Legend:
LNCaP cells = test: LC-MS/MS lipid levels in LNCaP cells; format: cell-based, human; conditions: 10 μM abiraterone acetate alone
Procedure: Cells were plated in 6-well plates for 48 hours before being exposed to CNL 10 μM and/or Abiraterone Acetate 10 μM, as well as respective controls (Ghost liposome and Ethanol respectively). Cells were collected after 1 hour, 4 hours, 12 hours, 24 hours, and 48 hours of exposure. Cells were lysed with 0.1× PBS and protein quantification was determined using a DC™ brand Protein Assay (Bio-Rad Laboratories, Inc., Hercules, California, United States of America). The Metabolomics core at University of Virginia performed lipid extraction, LC-MS/MS injections, and data analysis.

LNCaP and C4-2 cells = test: Synergy studies of CNL with abiraterone acetate or enzalutamide (MTS, isobolograms); format: cell-based, human; conditions: two AR positive cell lines; drug alone
Procedure: Viability was assayed using MTS assay (Promega […] 96® AQueous Non-Radioactive Cell Proliferation Assay) according to manufacturer instructions. […] Results were normalized to the respective negative controls of each experiment.

SCC-25 HNSCC cells = test: MTS cell viability assay, SCC-25 HNSCC cells; format: cell-based, human; conditions: for viability at 25 µM: Homo sapiens, 48 hours
Procedure: (§1) To evaluate cell viability in HNSCC cell lines after drug exposure, 5,000 cells were plated in 96-well plates. After 16-30 hours, cells were exposed to each drug alone or in combination, and viability was measured every 24 hours for a total of 48 hours. Viability was assayed using a […] 96® brand AQueous Non-Radioactive Cell Proliferation MTS Assay (Promega Corporation) according to manufacturer's instructions. A minimum of three biologically independent experiments were performed. Results were normalized to the respective negative controls of each experiment.
(§2) To evaluate cell viability of HNSCC cell lines after exposure to various amounts of Erlotinib, 5,000 UNC-10 or SCC-25 cells were plated in 96-well plates. After 16-30 hours, cells were exposed to each Erlotinib at 0 μM, 0.5 μM, 1 μM, 5 μM, 10 μM, and 25 μM, and viability was measured at 24 and 48 hours. Viability was assayed using MTS assay (Promega […] 96® AQueous Non-Radioactive Cell Proliferation Assay) according to manufacturer instructions. A minimum of three biologically independent experiments were performed. Results were normalized to the respective negative controls of each experiment.
(§3) To evaluate cell viability in HNSCC cell lines after exposure to CNLs, similar experiments were performed with five different concentrations of CNLs alone: 0 μM, 2.5 μM, 5 μM, 10 μM, 25 μM. 5,000 UNC-10 or SCC-25 cells were plated in 96-well plates. After 16-30 hours, cells were exposed to each drug alone or in combination, and viability was measured every 24 hours for a total of 48 hours. Viability was assayed using MTS assay (Promega […] 96® AQueous Non-Radioactive Cell Proliferation Assay) according to manufacturer instructions. A minimum of three biologically independent experiments were performed.
(§4) To evaluate cell viability in HNSCC cell lines after exposure to CNLs plus an EGFR inhibitor, 5,000 cells were plated in 96-well plates. After 16-30 hours, cells were exposed to six different concentrations of Erlotinib (0 μM, 0.5 μM, 1 μM, 5 μM, 10 μM, & 25 μM) combined with five different concentrations of CNLs (0 μM, 2.5 μM, 5 μM, 10 μM, & 25 μM), and viability was measured at 24 hours and 48 hours. Viability was assayed using MTS assay (Promega […] 96® AQueous Non-Radioactive Cell Proliferation Assay) according to manufacturer instructions. A minimum of three biologically independent experiments were performed. Results were normalized to the respective negative controls of each experiment.

UNC-10 HNSCC cells [1] = test: MTS cell viability assay, UNC-10 HNSCC cells; format: cell-based, human
Procedure: as §1, §2, §3, §4

UNC-10 HNSCC cells [2] = test: LC-MS/MS sphingolipid profile, UNC-10; format: cell-based, human; conditions: 25 μM Erlotinib, 0, 3, 6 hours
Procedure: (§5) To determine Erlotinib's effect on the sphingolipid profile in HNSCC, 500,000 cells of two different cell lines (UNC-7 & UNC-10) were plated and grown in cell culture. When these cells reached about 70% confluence, they were treated with 25 μM Erlotinib. After addition of the Erlotinib, cells were collected immediately, three hours later, or six hours later. Collected cells were lysed using 0.1× PBS and protein quantification was determined using a Pierce BCA Protein Assay (Thermo Fisher Scientific) according to the manufacturer's instructions. Cell lysates containing 250 μg of protein were then used for lipid extractions. […] The sphingolipids were then analyzed using LC-MS/MS.

SCC-25 cells = test: Flow cytometry viability dye assay, SCC-25 cells; format: cell-based; conditions: Homo sapiens, 48 hours, 25 μM Erlotinib
Procedure: (§6) To evaluate cell death in HNSCC cell lines exposed to CNL and/or Erlotinib or Gefitinib, a flow cytometry assay was performed. Cells were plated in 24-well plates for 16-30 hours before being pre-treated for one hour with Erlotinib or Gefitinib (0 μM, 10 μM, 25 μM) and then with CNL (0 μM, 2.5 μM, 5 μM). After 24 or 48 hours, cells were stained with a Fixable Viability Dye EFLUOR™ 780 brand a viability dye (ThermoFischer Scientific Inc.)
(§7) according to the manufacturer's recommendations. The use of this dye allowed us to differentiate between two cell populations: dead or live cells. Flow cytometry controls (alive/stained, alive/non-stained, & dead/stained) were used to allow for a more rigorous discrimination between populations. Results were normalized to the respective negative controls of each experiment. Data analysis was performed using FlowJo Software.
(§8) In order to evaluate cell death in HNSCC cell lines exposed to CNL and/or Erlotinib or Gefitinib, flow cytometry assays were also performed. Cells were plated in 24-well plates for 16-30 hours before being pre-treated for one hour with Erlotinib or Gefitinib (0 μM, 10 μM, 25 μM) and then with CNL (0 μM, 2.5 μM, 5 μM). After 24 or 48 hours, cells were stained with a viability dye (Fixable Viability Dye EFLUOR™ 780, ThermoFischer Scientific) according to the manufacturer recommendations. […]

[3] = test system: eight different HNSCC cell lines; test: MTS cell viability assays in eight HNSCC cell lines; format: cell-based, human; conditions: any of the cell lines, concentrations and time points
Procedure: Drugs concentrations. […] For synergistic experiments: abiraterone acetate (Selleckchem, Houston, Texas, United States of America) was used at 0.5 μM, 1 μM, 5 μM, 10 μM, 20 μM; enzalutamide (Selleckchem) at 1 μM, 5 μM, 10 μM, 20 μM, 30 μM; and CNL at 5 μM, 10 μM, 20 μM, and 30 μM. During synergy studies, each concentration of either abiraterone acetate or enzalutamide was combined with either Ghost (negative) control (nanoliposomes without the C6 ceramide—active agent) or each concentration of CNL. Respective negative controls for abiraterone acetate and enzalutamide were also used. Synergy experiments were performed in LNCaP and C4-2 cells. For synergistic studies using the HNSCC cell lines, all eight cell lines were pre-treated for one hour with either Erlotinib (Selleckchem) or Gefitinib (Sigma-Aldrich Corporation, St. Louis, Missouri, United States of America) before adding CNL. Six different concentrations of Erlotinib and Gefitinib (0 μM, 0.5 μM, 1 μM, 5 μM, 10 μM, and 25 μM) were tested against five different CNL concentrations (0 μM, 2.5 μM, 5 μM, 10 μM, and 25 μM). […]
To evaluate cell viability in HNSCC cell lines after drug exposure, 5,000 cells were plated in 96-well plates. After 16-30 hours, cells were exposed to each drug alone or in combination, and viability was measured every 24 hours for a total of 48 hours. […]

UNC-10 cells = test: Flow cytometry viability dye assay, UNC-10 cells; format: cell-based; conditions: Homo sapiens, 48 hours, 25 μM Erlotinib
Procedure: as §6, §7, §8

UNC-7 HNSCC cells = test: LC-MS/MS sphingolipid profile, UNC-7; format: cell-based, human; conditions: 25 μM Erlotinib, 0, 3, 6 hours
Procedure: as §5

## CC(=O)O[C@H]1CC[C@@]2(C)C(=CC[C@@H]3[C@@H]2CC[C@]2(C)C(c4cccnc4)=CC[C@@H]32)C1 [abiraterone acetate]
LNCaP cells
  C6 ceramide levels: not changed
  total ceramide levels: not changed
LNCaP and C4-2 cells
  reduction of viability as single treatment: effective in reducing the viabilities of PCa cells

## COc1cc2ncnc(Nc3ccc(F)c(Cl)c3)c2cc1OCCCN1CCOCC1 [Gefitinib]
SCC-25 HNSCC cells; Gefitinib alone, 24 hours and 48 hours
  effect on viability compared with UNC-10: less striking
SCC-25 HNSCC cells; 25 μM Gefitinib
  viability at 25 µM: 81%
UNC-10 HNSCC cells [1]; Gefitinib at 5 μM or less, 24 hours or 48 hours
  effect on viability: little effect
UNC-10 HNSCC cells [1]; Gefitinib higher concentrations (10, 25 μM), particularly at 24 hours
  effect on viability: reduced viability
UNC-10 HNSCC cells [1]; Homo sapiens, 48 hours, 5 μM Gefitinib
  viability at 5 µM: 97%

## CNC(=O)c1ccc(N2C(=S)N(c3ccc(C#N)c(C(F)(F)F)c3)C(=O)C2(C)C)cc1F [Enzalutamide]
LNCaP and C4-2 cells
  reduction of viability as single treatment: not as effective as a single treatment

## C#Cc1cccc(Nc2ncnc3cc(OCCOC)c(OCCOC)cc23)c1 [Erlotinib]
SCC-25 HNSCC cells; Erlotinib alone, higher concentrations, 24 or 48 hours
  effect on cell viability: not statistically significant
SCC-25 HNSCC cells; 25 μM Erlotinib
  viability at 25 µM: 89%
UNC-10 HNSCC cells [2]
  sphingolipid levels: able to alter sphingolipid levels
SCC-25 cells
  viability at 25 µM: 89%
[3]
  effect of Erlotinib alone on cell viability: failing to produce any meaningful effects
UNC-10 cells
  viability at 25 µM: 91%
UNC-7 HNSCC cells
  sphingolipid levels: able to alter sphingolipid levels
UNC-10 HNSCC cells [1]; Erlotinib alone 0.5-25 μM, 24 or 48 hours
  effect on cell viability: little effect
UNC-10 HNSCC cells [1]; Homo sapiens, 48 hours, 25 μM Erlotinib
  viability at 25 µM: 90%
